Test results as given in patent publication US20080226685A1, “Product and Method for Controlling Flying Insects” (Reckitt Benckiser (Australia) Pty Limited, priority 2003, published 2008).
Read-outs that look alike come from different tables or passages of the source.

Experiments:
[1] = cited from earlier work
[2] = Emanation rate from 18 gsm paper dosed with different solvents (Example 9); format: physicochemical; conditions: 14 mg on A4 18 gsm tissue paper, 28° C.
Experimental: A study of the metofluthrin emanation rate from 18 gsm paper dosed with different solvents was made.
Tissue paper (18 gsm) having an effective surface area of 1250 cm^2 (A4) was dosed with metofluthrin (14 mg) prepared in a range of solvents. The papers were then aged in a chamber at 28° C. with low airflow for up to a maximum of 168 hours. The amount of metofluthrin remaining on the paper substrate was measured from time 0 hours to 168 hours. The following solvents were used:
The inventors have concluded that linear release kinetics are observed for metofluthrin emanating from paper substrates and accordingly, the line of best fit was fitted to obtain the linear equation to enable the rate of emanation to be determined: […]

[3] = test system: Aedes aegypti mosquitoes; assay: Knockdown studies in a 40 m^3 test chamber with paper dosed with metofluthrin; format: in vivo
Experimental: The inventors have carried out a number of knockdown studies for the control of mosquitoes using paper surfaces impregnated and/or dosed with the vapour active insecticide metofluthrin. The active was applied to each paper surface as a solution in acetone/ethanol (1:1).
Tests were carried out in a 40 m^3 test chamber. The temperature was approximately 28° C. Mixed sex Aedes aegypti mosquitoes were used, aged for 7-10 days after emergence. Up to 200 mosquitoes were introduced into the chamber for each test. Three replicates were done for each treatment. Knocked down mosquitoes were collected at the end of each assessment period and counted.
Knockdown studies against the Dengue mosquito Aedes aegypti using three surface areas a) A2, b) A3 and c) A4 of 18 gsm paper in the above test chamber were carried out. Each paper was treated with 150 mg of metofluthrin. A mosquito coil containing 0.04% Prallethrin was included as a reference control.
A knockdown study against the Dengue mosquito Aedes aegypti using aged paper was conducted. The test involved treating 18 gsm paper of A4 surface area with 2 mg of metofluthrin at 28° C. for up to 12 hours. The treated paper was hung in the centre of the above chamber. A mosquito coil containing 0.04% prallethrin was included in the trial as a reference control.

[4] = Emanation rate from 50 gsm A4 paper dosed with different amounts (Example 6); format: physicochemical; conditions: A4 50 gsm paper, dry dosing in acetone/ethanol (1:1), 25 mg to approximately 5 mg, 28° C., low air flow
Experimental: A study involving dosing 50 gsm paper with different amounts of metofluthrin was made to investigate the affect on the emanation rate from this substrate. Three samples of white (A4) paper (50 gsm) each having a surface area of 1250 cm^2 were dosed with metofluthrin (25, 20 and 14 mg) dissolved in acetone/ethanol (1:1) using the dry dosing technique. The papers were aged in a chamber at 28° C. with low air flow for up to a maximum of 214 hours. The amount of metofluthrin remaining on the paper substrate was measured from time 0 hours to 214 hours. The plot obtained for the emanation rate of metofluthrin from the 25 mg dosed samples was used to estimate the time it would take for 20 and 14 mg of metofluthrin to remain on the samples.

[5] = Emanation rate from 30 gsm paper dosed with different solvents (Example 8); format: physicochemical; conditions: 14 mg on A4 30 gsm paper, 28° C.
Experimental: A study of the metofluthrin emanation rate from 30 gsm paper dosed with different solvents was made.
White (A4) paper (30 gsm) having a surface area of […] was dosed with metofluthrin (14 mg) prepared in a range of solvents, as listed below. The papers were aged in a chamber at 28° C. with low air flow for up to a maximum of 168 hours. The amount of metofluthrin remaining on the paper substrate was measured from time 0 hours to 168 hours. The following solvents were used:
The inventors have concluded that linear release kinetics are observed for metofluthrin emanating from paper substrates and accordingly, the line of best fit was fitted to obtain the linear equation to enable the rate of emanation to be determined.

[6] = Stability and packaging suitability, storage at 55° C. (Example 10); format: physicochemical
Experimental: The stability and packaging suitability of various materials was studied. In these studies, metofluthrin (14 mg) was applied to A4 sized 30 gsm paper substrates via wet and dry application at ambient temperature. The samples were placed in pouches prepared from the packaging materials under investigation, sealed tightly and stored at 55° C. After periods of one and two weeks, samples were removed from storage and the dosed paper substrates were measured for metofluthrin content. The packaging materials studied were glass, PVC, amorphous PET (APET), crystalline PET (CPET), aluminium foil, heat sealable polyester films, acrylonitrile methyl acrylate copolymer and PEPET. For the wet dosing of metofluthrin on the paper substrate, the metofluthrin was dissolved in Exxsol D80 or Norpar 12 and the resulting solution applied to the substrate. For dry application, the metofluthrin was dissolved in acetone/ethanol (1:1 by volume) and applied to the substrate. The solvent was then allowed to evaporate over a period of 5-10 minutes.

[7] = Emanation rate from 18 gsm paper honeycomb, wet dosed in Norpar 12 (Example 7); format: physicochemical; conditions: 30 mg on 18 gsm honeycomb, estimated surface area 2199 cm^2, wet dosed in Norpar 12, 28° C., low airflow
Experimental: A study involving dosing 18 gsm paper configured into a honeycomb format with an estimated surface area of 2199 cm^2 with metofluthrin (30 mg) was made to determine the emanation rate from this substrate.
The metofluthrin was dissolved in Norpar 12 and dosed on to the substrate using the wet dosing technique. The papers were hung and aged in a chamber at 28° C. with low airflow for up to a maximum of 80 hours. The amount of metofluthrin remaining on the paper substrate was measured from time 0 hours to 80 hours. The plot obtained for the amount of metofluthrin remaining on samples as a function of time was used to calculate the release rate from this format.

**Q.** For `Cc1c(F)c(F)c(COC(=O)[C@@H]2[C@H](/C=C(\Cl)C(F)(F)F)C2(C)C)c(F)c1F` (racemic) [tefluthrin], which “vapour pressure (volatility at ambient temperature)” value (“vapour pressure” for short) ([1]; 20° C.) is on record?
**A.** Its value is 8.4 mPa.

**Q.** What about the “vapour pressure” value ([1]; 40° C.) of the same compound?
**A.** Its value is 50 mPa.

**Q.** Which “vapour pressure” value ([1]; 20° C.) does the source give for `CC1(C)[C@H](C=C(Cl)Cl)[C@H]1C(=O)OCc1c(F)c(F)c(F)c(F)c1F` [fenfluthrin] here?
**A.** Its value is 1 mPa.

**Q.** Which results are given for `CC=CC1C(C(=O)OCc2c(F)c(F)c(COC)c(F)c2F)C1(C)C` (racemic) [metofluthrin, 2,3,5,6-tetrafluoro-4-(methoxymethyl)benzyl-(EZ)-(1RS,3RS;1RS,3SR)-2,2-dimethyl-3-(prop-1-enyl)cyclopropanecarboxylate]?
**A.** Release Rate Index ([2]; solvent Dowanol DPM, wet dosing, relative to acetone/ethanol): 1.20; Release Rate Index ([2]; solvent Dowanol TPM, wet dosing, relative to acetone/ethanol): 1.24; Release Rate Index ([2]; solvent Isopar L, wet dosing, relative to acetone/ethanol): 1.75; Release Rate Index ([2]; solvent Sasol C12-13, wet dosing, relative to acetone/ethanol): 1.63; Release Rate Index ([2]; solvent acetone/ethanol (1:1), dry dosing (reference = 1)): 1.00; Release Rate Index ([2]; solvent n-pentane, dry dosing, relative to acetone/ethanol): 1.50; knockdown ([3]; 2 mg on A4 18 gsm paper aged at 28° C., for up to 4 hours, 40 m^3 chamber): greater than 40%; effectiveness relative to control (mosquito coil 0.04% prallethrin) ([3]; 2 mg on A4 18 gsm paper, at 4 hours of aging at 28° C.): twice as effective as the control; knockdown effectiveness compared with reference control ([3]; A2, A3 and A4 18 gsm paper each treated with 150 mg, 40 m^3 chamber, approx. 28° C., control = mosquito coil containing 0.04% Prallethrin): more effective than the control; emanation rate when varying initial amount dosed [4]: constant; Release Rate Index ([5]; solvent Acetone/ethanol (1:1), dry dosing (reference = 1)): 1.00; Release Rate Index ([5]; solvent Exxsol D40, wet dosing, relative to acetone/ethanol): 1.40; Release Rate Index ([5]; solvent Exxsol D80, wet dosing, relative to acetone/ethanol): 1.41; Release Rate Index ([5]; solvent Exxsol D140, wet dosing, relative to acetone/ethanol): 0.25; Release Rate Index ([5]; solvent HoTung C11-14, wet dosing, relative to acetone/ethanol): 1.37; Release Rate Index ([5]; solvent Isopar G, wet dosing, relative to acetone/ethanol): 1.58; metofluthrin recovered from paper substrate (%) ([6]; packaging APET, dry dosing, acetone/ethanol (1:1), 1 week at 55° C.): 87%; metofluthrin recovered from paper substrate (%) ([6]; packaging APET, dry dosing, acetone/ethanol (1:1), 2 weeks at 55° C.): 82%; metofluthrin recovered from paper substrate (%) ([6]; packaging APET, wet dosing, Exxsol D80, 1 week at 55° C.): 95%; metofluthrin recovered from paper substrate (%) ([6]; packaging APET, wet dosing, Exxsol D80, 2 weeks at 55° C.): 100%; metofluthrin recovered from paper substrate (%) ([6]; packaging Acrylonitrile methyl acrylate copolymer, wet dosing, Norpar 12, 1 week at 55° C.): 98%; metofluthrin recovered from paper substrate (%) ([6]; packaging Acrylonitrile methyl acrylate copolymer, wet dosing, Norpar 12, 2 weeks at 55° C.): 99%; metofluthrin recovered from paper substrate (%) ([6]; packaging Aluminium foil, dry dosing, acetone/ethanol (1:1), 1 week at 55° C.): 99%; metofluthrin recovered from paper substrate (%) ([6]; packaging Aluminium foil, dry dosing, acetone/ethanol (1:1), 2 weeks at 55° C.): 98%; metofluthrin recovered from paper substrate (%) ([6]; packaging Aluminium foil, wet dosing, Exxsol D80, 1 week at 55° C.): 99%; metofluthrin recovered from paper substrate (%) ([6]; packaging Aluminium foil, wet dosing, Exxsol D80, 2 weeks at 55° C.): 100%; metofluthrin recovered from paper substrate (%) ([6]; packaging CPET, dry dosing, acetone/ethanol (1:1), 1 week at 55° C.): 98%; metofluthrin recovered from paper substrate (%) ([6]; packaging CPET, dry dosing, acetone/ethanol (1:1), 2 weeks at 55° C.): 99%; metofluthrin recovered from paper substrate (%) ([6]; packaging CPET, wet dosing, Exxsol D80, 1 week at 55° C.): 96%; metofluthrin recovered from paper substrate (%) ([6]; packaging CPET, wet dosing, Exxsol D80, 2 weeks at 55° C.): 100%; metofluthrin recovered from paper substrate (%) ([6]; packaging Glass (bottle), dry dosing, acetone/ethanol (1:1), 1 week at 55° C.): 90%; metofluthrin recovered from paper substrate (%) ([6]; packaging Glass (bottle), dry dosing, acetone/ethanol (1:1), 2 weeks at 55° C.): 81%; metofluthrin recovered from paper substrate (%) ([6]; packaging Glass (bottle), wet dosing, Exxsol D80, 1 week at 55° C.): 100%; metofluthrin recovered from paper substrate (%) ([6]; packaging Glass (bottle), wet dosing, Exxsol D80, 2 weeks at 55° C.): 98%; metofluthrin recovered from paper substrate (%) ([6]; packaging PEPET, wet dosing, Norpar 12, 1 week at 55° C.): 78%; metofluthrin recovered from paper substrate (%) ([6]; packaging PEPET, wet dosing, Norpar 12, 2 weeks at 55° C.): 77%; metofluthrin recovered from paper substrate (%) ([6]; packaging PVC, dry dosing, acetone/ethanol (1:1), 1 week at 55° C.): 64%; metofluthrin recovered from paper substrate (%) ([6]; packaging PVC, dry dosing, acetone/ethanol (1:1), 2 weeks at 55° C.): 46%; metofluthrin recovered from paper substrate (%) ([6]; packaging PVC, wet dosing, Exxsol D80, 1 week at 55° C.): 73%; metofluthrin recovered from paper substrate (%) ([6]; packaging PVC, wet dosing, Exxsol D80, 2 weeks at 55° C.): 44%; metofluthrin recovered from paper substrate (%) ([6]; packaging heat sealable polyester films, dry dosing, acetone/ethanol (1:1), 2 weeks at 55° C.): 92%; metofluthrin recovered from paper substrate (%) ([6]; packaging heat sealable polyester films, wet dosing, Exxsol D80, 2 weeks at 55° C.): 100%; emanation rate [7]: 0.22 mg/h

**Q.** For `C#CC(OC(=O)C1C(C=C(C)C)C1(C)C)/C(C)=C/CC` (centres unmarked) [empenthrin], which “vapour pressure” value ([1]; 23.6° C.) is on record?
**A.** Its value is 14 mPa.
